{"source": "paper PMC5387716", "about": "“Discovery of monocarbonyl curcumin-BTP hybrids as STAT3 inhibitors for drug-sensitive and drug-resistant breast cancer therapy” (Scientific Reports, 2017)", "key": {"[1]": {"test_system": "MCF-10A cells", "experiment": "MTT anti-proliferative assay, MCF-10A", "format": "cell-based, human", "details": "48 h, normal breast epithelial cells, Table 2 prints no unit, μM", "procedure": "(§1) All cell lines were purchased from Cell Bank of Shanghai Institute of Biochemistry and Cell Biology, Chinese Academy of Sciences (Shanghai, China). Human breast carcinoma cells (MCF-7 and MCF-7/DOX), breast epithelial cells (MCF-10A) and normal human liver cells (LO2) were maintained in RPMI-1640 medium. All cells were supplemented with 12% fetal bovine serum containing 50 μg/ml penicillin and 50 μg/ml streptomycin. Cells were grown to 80% confluency in a tissue culture flask at 37 °C in a humidified atmosphere containing 5% CO2, and then were trypsinized with 1 × Trypsin-Versene and split. The MCF-7/DOX cell line we used was established from its parental cell line MCF-7 cell by gradually increasing the concentration of DOX to which the cells were exposed in a stepwise manner over a period of 8 months. […] The cells were incubated in drug-free medium for at least 1 week before use.\n(§2) Cells (MCF-7, MCF-7/DOX, MCF-10A, LO2) were seeded in 96-well plates at a density of 3,000–6,000 cells per well. The cells were incubated overnight (16 h) in a humidified 5% CO2 incubator at 37 °C. After media removal, different concentrations of test compounds were added in triplicate to the plates in 200 μL of fresh media and were incubated with the cells at 37 °C for 48 h. […] Cell viability was evaluated using 3-(4, 5-dimethylthiazolyl)-2,5-diphenyltetrazoliumbromide (MTT). The absorbance was read by an ELISA reader (SpectraMax Plus384, Molecular Devices, Sunnyvale, CA) at a test wavelength of 570 nm and a reference wavelength of 630 nm. Cell viability was calculated using the following formula: […]"}, "[2]": {"test_system": "LO2 cells", "experiment": "MTT anti-proliferative assay, LO2", "format": "cell-based", "details": "normal human liver cells, Table 2 prints no unit, μM", "procedure": "as §1, §2"}, "[3]": {"test_system": "Bax", "experiment": "Western blot of Bax", "format": "cell-based, human", "details": "MCF-7 and MCF-7/DOX cells, 24 h", "procedure": "(§3) MCF-7 or MCF-7/DOX cells were incubated with various concentrations of 6b for 24 h. After trypsinization, cells were treated with 1× RIPA lysis buffer (50 mM Tris–HCl, pH 7.4, 150 mM NaCl, 0.25% deoxycholic acid, 1% NP-40, 1 mM EDTA and protease inhibitors) (Amresco, Solon, USA) to extract the total proteins. An aliquot of proteins from the total cell lysates (30 to 60 μg/lane) was separated by sodium dodecyl sulfate (10%) polyacrylamide gel electrophoresis (SDS–PAGE, Bio-Rad Laboratories, Hercules, CA), wet-transferred to NC membrane (Bio-Rad Laboratories, Hercules, CA) and blotted with primary antibodies specific for STAT3, p-STAT3, p-Jak2, Jak2, p-Src, Src, Erk, P-Erk, PARP, cleaved PARP, Bcl-2, Bax, Cyclin D1, P-gp and GAPDH. Bound immuno-complexes were detected using ChemiDOC™ XRS + system (Bio-Rad Laboratories, Hercules, CA)."}, "[4]": {"test_system": "P-gp", "experiment": "Western blot of P-gp", "format": "cell-based, human", "details": "MCF-7/DOX cells, 24 h", "procedure": "as §3"}, "[5]": {"test_system": "MCF-7 cells", "experiment": "ROS detection by DCFH-DA flow cytometry, MCF-7", "format": "cell-based, human", "details": "MCF-7, different concentrations (1, 2, 4 μM), 24 h", "procedure": "(§4) MCF-7 or MCF-7/DOX cells were seeded at a density of 3 × 10^5 cells per well of a 6-well plate and treated with various concentrations of 6b (0, 1, 2, 4 μM) or 4 μM curcumin for 24 h. DCFH-DA was dissolved in serum-free medium and diluted to a final concentration of 10 μM. After treatment with 6b, the growth media was replaced with serum-free medium containing the probe. After incubation for 20 min at 37 °C, cells were washed with serum-free medium twice, digested by trypsin and resuspended in pre-warmed PBS buffer. The samples were then subjected to a flow cytometry assay using a BD FACSCalibur flow cytometer (Becton & Dickinson Company, Franklin Lakes, NJ)."}, "[6]": {"test_system": "MCF-7/DOX cells", "experiment": "ROS detection by DCFH-DA flow cytometry, MCF-7/DOX", "format": "cell-based, human", "details": "different concentrations (1, 2, 4 μM), 24 h", "procedure": "as §4"}, "[7]": {"test_system": "STAT3", "experiment": "IL-6 induced STAT3 phosphorylation (western blot)", "format": "cell-based, human", "details": "6 h, IL-6 50 ng/mL 30 min", "procedure": "MCF-7 or MCF-7/DOX cells were seeded in 6-well plates and allowed to adhere overnight. The following day, the cells were serum-starved. The cells were then left untreated or were treated with 6b (0.5–4 μM). After 6 h, the untreated and 6b-treated cells were stimulated with IL-6 (50 ng/ml). The cells were harvested after 30 min and analyzed by western blot."}, "[8]": {"test_system": "STAT1", "experiment": "IFN-γ induced STAT1 phosphorylation (western blot)", "format": "cell-based, human", "details": "MCF-7, 0.5–4 μM, 6 h, IFN-γ 50 ng/mL 30 min; compared with effect on IL-6-induced p-STAT3"}, "[9]": {"test_system": "Jak2", "experiment": "Western blot of p-Jak2", "format": "cell-based, human", "details": "MCF-7 and MCF-7/DOX cells, 24 h", "procedure": "as §3"}, "[10]": {"test_system": "Erk1/2", "experiment": "Western blot of p-Erk1/2", "format": "cell-based, human", "details": "MCF-7 and MCF-7/DOX cells, 24 h", "procedure": "as §3"}, "[11]": {"test_system": "implanted human breast tumors (MCF-7)", "experiment": "MCF-7 xenograft in BALB/c nude mice", "format": "in vivo", "details": "10 mg/kg ip daily for 21 days", "procedure": "The working solution was prepared in a Cremophor and DMSO mixture (10% Cremophor, 10% DMSO and 80% 1 × PBS) to give a 1 mg/ml solution. Athymic BALB/c nude mice (15–18 g) were injected with human breast tumor MCF-7 cells (3 × 10^6 cells in a volume of 0.2 ml) into the subcutaneous tissue of the right auxiliary region of the mice. Three days after the tumor cell inoculation, the mice were randomly sorted into three groups with six mice per group. The tumor-bearing mice were either given a daily 10 mg/kg ip injection of compound 6b or the vehicle. The treatment was initiated when the tumor burden of the mice reached approximately 50 mm^3. The tumor size was measured by caliper three times a week to document tumor growth and calculated by the formula: length × width × width/2, and the body weight was measured and recorded. Therapeutic efficacy was evaluated based on body weight loss, tumor growth inhibition [determined by using calipers and calculated by the formula: tumor inhibit rate (%) = (tumor volCon − tumor volTre)/tumor volCon] × 100. The body weight inhibitory ratio, BI (%) was calculated as BI (%) = (1 −MT/MC) × 100, where MT and MC were the average body weights of the treated and control groups, respectively. On the 22nd day, all mice were killed, and the tumors were segregated, weighed, and stored in −80 °C for later use. The levels of p-STAT3 in tumor tissues prepared from control or mice treated with 6b were analyzed by western blot assay. Apoptosis was evaluated via the TUNEL assay, and the Ki-67 assay was used to assess cancer cell proliferation."}}, "data": [{"smiles": "COc1ccc(/C=C/C(=O)N2CCN(C(=O)C3=Cc4cc(Br)ccc4S3(=O)=O)CC2)cc1", "note": "[Compound 6b, (E)-1-(4-(5-bromo-1,1-dioxidobenzo[b]thiophene-2-carbonyl)piperazin-1-yl)-3-(4-methoxyphenyl)prop-2-en-1-one]", "values": [{"measurement": "IC50", "setting": "[1]", "value": "7.72 ± 0.56", "unit": "µM"}, {"measurement": "IC50", "setting": "[1]; Homo sapiens, MCF-10A", "value": 7.7, "unit": "µM"}, {"measurement": "IC50", "setting": "[2]; 48 h", "value": "8.31 ± 0.41", "unit": "µM"}, {"measurement": "IC50", "setting": "[2]; Homo sapiens, L02, 48 h", "value": 8.3, "unit": "µM"}, {"measurement": "expression of Bax (protein)", "setting": "[3]", "value": "increased"}, {"measurement": "P-gp expression", "setting": "[4]", "value": "decreased P-gp expression in MCF-7/DOX cells in a dose-dependent manner"}, {"measurement": "increase of ROS levels", "setting": "[5]", "value": "2–8 fold"}, {"measurement": "increase of ROS levels", "setting": "[6]", "value": "2–8 fold"}, {"measurement": "STAT3 phosphorylation induced by IL-6", "setting": "[7]; MCF-7, 4 μM", "value": "almost completely abolished"}, {"measurement": "IL-6-induced phosphorylation levels of STAT3", "setting": "[7]; MCF-7, low concentration (0.5–4 μM tested)", "value": "decreased"}, {"measurement": "IFN-γ-induced STAT1 phosphorylation", "setting": "[8]", "value": "less of an effect"}, {"measurement": "phosphorylation of Jak2", "setting": "[9]", "value": "inhibited"}, {"measurement": "p-Erk1/2 expression", "setting": "[10]", "value": "little effect"}, {"measurement": "Ki-67 immunohistochemical staining in tumor tissues", "setting": "[11]", "value": "suppressed tumor cell proliferation"}, {"measurement": "TUNEL assay of tumor cells", "setting": "[11]", "value": "induced tumor cell apoptosis"}, {"measurement": "changes in the body weights of the mice", "setting": "[11]", "value": "no significant changes"}, {"measurement": "reduction of the weight of the tumor tissues compared with the control", "setting": "[11]", "value": 68.2, "unit": "%"}, {"measurement": "p-STAT3 in lysates from the tumor tissues (immunoblotting)", "setting": "[11]; vs control tumors", "value": "suppression of p-STAT3"}, {"measurement": "volumes of the implanted human breast tumors", "setting": "[11]; vs vehicle", "value": "significantly reduced"}]}]}
